Data reported in ChEMBL document CHEMBL1201862, “PubChem BioAssay data set” (2004).
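Grown in 96-well plates, cells were treated for 48 hours with each compound at five concentrations. Insufficient inhibition: endpoint recorded as highest concentration tested. GI50: concentration for 50% inhibition of growth.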 Activity calls are given as the source filed them. Cut-off read from the data, not from the text of the source: active = GI50 up to about 1.1 µM and inactive = higher.

Key:
Assay in all cases: DTP human tumour cell line panel, 48 h
[1] = system: MDA-MB-231
[2] = system: T47D
[3] = system: OVCAR-4
[4] = system: UACC-257
[5] = system: MOLT-4
[6] = system: SK-MEL-5
[7] = system: NCI-H226
[8] = system: MDA-N
[9] = system: UO-31
[10] = system: HCT-116
[11] = system: LOX IMVI
[12] = system: COLO 205
[13] = system: EKVX
[14] = system: HCC 2998
[15] = system: DU-145
[16] = system: SF-268
[17] = system: NCI-H460
[18] = system: HOP-92
[19] = system: RXF 393
[20] = system: Malme-3M

Measured: GI50

CCNC(=S)NNC(=O)c1csc(NC(=S)NC2CCCCC2)n1
inactive: [1] 6.53 µM | [2] 11.7 µM | [3] 7.91 µM | [4] 4.79 µM | [5] 3.11 µM | [6] 2.79 µM | [7] > 100 µM | [8] 2.9 µM | [9] 8.45 µM | [10] 5.26 µM | [11] 5.83 µM | [12] 8.53 µM | [13] > 100 µM | [14] 8.17 µM | [15] 12.1 µM | [16] 10.8 µM | [17] 6.62 µM

COc1ccc(OC)c(-c2cn3c(n2)sc2ccccc23)c1
inactive: [1] > 100 µM | [2] > 100 µM | [3] > 100 µM | [4] > 100 µM | [5] > 100 µM | [6] 65 µM | [7] > 100 µM | [8] > 100 µM | [18] 15.8 µM | [19] > 100 µM | [9] > 100 µM | [10] > 100 µM | [11] > 100 µM | [12] > 100 µM | [13] > 100 µM | [20] > 100 µM | [15] > 100 µM | [16] > 100 µM | [17] > 100 µM

BrC(=C(c1ccc(OC2CCCCO2)cc1)c1ccc(OC2CCCCO2)cc1)c1ccccc1 (configuration not stated)
inactive: [1] > 100 µM | [2] > 100 µM | [3] > 100 µM | [4] > 100 µM | [5] > 100 µM | [7] > 100 µM | [8] > 100 µM | [18] > 100 µM | [19] > 100 µM | [9] > 100 µM | [10] > 100 µM | [11] > 100 µM | [12] > 100 µM | [13] > 100 µM | [20] > 100 µM | [15] > 100 µM | [16] > 100 µM | [17] > 100 µM

Cc1ccc(Sc2ccccc2C23OC(C)(C4C(=O)N(c5ccccc5)C(=O)C42)N(C)C3=O)cc1 (configuration not stated)
inactive: [1] > 100 µM | [2] > 100 µM | [3] 84.5 µM | [4] > 100 µM | [5] > 100 µM | [6] > 100 µM | [7] > 100 µM | [8] > 100 µM | [18] 42.8 µM | [19] 85.7 µM | [9] > 100 µM | [10] > 100 µM | [11] > 100 µM | [12] > 100 µM | [13] > 100 µM | [20] 79.6 µM | [15] > 100 µM | [16] > 100 µM | [17] > 100 µM

Clc1ccc(C2Nc3ccccc3C3=NCCN32)cc1 (configuration not stated)
inactive: [1] 23.5 µM | [2] 15.6 µM | [3] 30.7 µM | [4] 17.5 µM | [5] 36.4 µM | [6] 15.7 µM | [8] 17.4 µM | [18] 8.18 µM | [19] 21.1 µM | [9] 27.3 µM | [10] 12.4 µM | [11] 17.2 µM | [12] 13 µM | [13] 25.6 µM | [20] 15.4 µM | [15] 39.8 µM | [16] 20.7 µM | [17] 16.3 µM

O/N=N/c1ccc(Sc2ccc(/N=N/O)cn2)nc1
inactive: [1] > 100 µM | [2] > 100 µM | [3] > 100 µM | [4] > 100 µM | [5] > 100 µM | [6] > 100 µM | [7] > 100 µM | [8] > 100 µM | [9] 46.8 µM | [10] > 100 µM | [12] > 100 µM | [13] > 100 µM | [14] > 100 µM | [15] > 100 µM | [16] > 100 µM | [17] > 100 µM
